In US4259332A, “Novel taurine derivatives” (priority 1979, dated 1981):

Key:
[1] = Antilipemic action, Morris or Handler diet, Compound A; format: in vivo, Wistar rat; conditions: for Bile BSF excretion, percentage change vs controls / Serum beta-lipoproteins, percentage change vs controls / Serum total cholesterol, percentage change vs controls / Serum total lipids, percentage change vs controls: 50 days, 200 mg/kg orally
Procedure: Wistar rats were treated for 50 days with a Morris diet or a Handler diet. Simultaneously with the diet they received 200 mg/kg of Compound A or of choline orally every day. The controls only received the diet. The following were examined at the end of the treatment: (a) total cholesterol, total lipids and beta-lipoproteins in the serum, (b) BSF excretion in the bile.

[2] = Toxicology, oral treatment of mice for 180 days, Compound A; format: in vivo, mouse; conditions: 200 mg/kg orally
[3] = Choleretic activity in cannulated rats; format: in vivo, rat
Procedure: Rats were fitted with a cannula, the bile volume was measured after the first hour, they were then treated with a test compound and the bile volume was measure after the second hour, so as to determine the percentage change. The various compounds were administered intravenously at a dose of 100 mg/kg.

[4] = Protection against hepatic intoxication by CCl4 and cold, Compound A (BSF in blood); format: in vivo; conditions: 500 mg/kg simultaneously with CCl4; 5 h at 4° C.
Procedure: Oral administration of 5 ml/kg of a 20% solution of CCl4 in oil was followed by exposure for 5 hours to a temperature of 4° C. 500 Mg/kg of the Compound A of the invention were administered simultaneously with the CCl4. The BSF was tested in the blood. An average of 20 animals were used per group, and relative to the controls there was a reduction of 16%.

[5] = Vasodilator activity (vasodilation of the ocular conjunctiva in guinea pigs); format: in vivo, guinea pig
[6] = 100 mg/kg i.v., given after first hour

Structure (SMILES): O=C(OCCN(CCS(=O)(=O)O)C(=O)c1cccnc1)c1cccnc1 [Compound A, N-nicotinoyl-N-(2-nicotinoyloxy)ethyltaurine]
- Bile BSF excretion, percentage change vs controls ([1]; Handler diet): +36.0%
- Serum beta-lipoproteins, percentage change vs controls ([1]; Handler diet): -28.9%
- Serum total cholesterol, percentage change vs controls ([1]; Handler diet): -26.9%
- Serum total lipids, percentage change vs controls ([1]; Handler diet): -19.6%
- Bile BSF excretion, percentage change vs controls ([1]; Morris diet): +23.5%
- Serum beta-lipoproteins, percentage change vs controls ([1]; Morris diet): -34.3%
- Serum total cholesterol, percentage change vs controls ([1]; Morris diet): -14.3%
- Serum total lipids, percentage change vs controls ([1]; Morris diet): -17.0%
- Oral absorption (deduced from diet tests) ([1]; oral, Morris and Handler diets): absorbed orally
- Mortality [2]: no mortality
- Bile dry residue change ([3]; 100 mg/kg i.v.): +40.0%
- Bile volume change ([3]; 100 mg/kg i.v.): +52.0%
- Choleretic activity (in words) ([3]; 100 mg/kg i.v.): appearance of choleretic activity
- Bile dry residue after 2 h [3, 6]: 35.3 mg/h
- Bile volume after 2 h [3, 6]: 1.14 mL/h
- Bile dry residue after 1 h ([3]; before treatment (first hour)): 25.7 mg/h
- Bile volume after 1 h ([3]; before treatment (first hour)): 0.75 mL/h
- Reduction of BSF in the blood relative to controls [4]: 16%
- Vasodilator effect: duration ([5]; 0.1 mg/kg endoperitoneal): 0 min
- Vasodilator effect: positive response ([5]; 0.1 mg/kg endoperitoneal): 0%
- Vasodilator effect: duration ([5]; 1.0 mg/kg endoperitoneal): 120 min
- Vasodilator effect: positive response ([5]; 1.0 mg/kg endoperitoneal): 80%
- Vasodilator effect: time of appearance ([5]; 1.0 mg/kg endoperitoneal): 90 s
- Vasodilator effect: duration ([5]; 10.0 mg/kg endoperitoneal): 120 min
- Vasodilator effect: positive response ([5]; 10.0 mg/kg endoperitoneal): 100%
- Vasodilator effect: time of appearance ([5]; 10.0 mg/kg endoperitoneal): 96 s
- Vasodilator activity (in words) ([5]; endoperitoneal): better activity than the 3-pyridylcarbinol compound
